Several values for one entry are separate records, joined by “and”; a condition that tells them apart may be missing. Equal values may be shown once. Toxic doses and inconclusive results are not listed. No stated cut-off is given here; in the data, active means T/C of 150% or more; inactive means T/C below 125%.
System: L1210 leukemia ip in BDF1 mice, survival T/C
Experiment: NCI In Vivo Anticancer Drug Screen. Data for tumor model L1210 Leukemia (intraperitoneal) in B6D2F1 (BDF1) mice
Conditions: endpoint: mean survival time, higher = longer survival
How it was run: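 Antitumor effect is assessed in tumor-bearing animals. Survival in the compound arm is compared with a vehicle-dosed control arm and expressed as their quotient.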

[1] = dose: 100.0 mg/kg/injection, schedule: Q01DX009 (ip), vehicle: Klucel (hydroxypropylcellulose) (HPC)
[2] = dose: 200.0 mg/kg/injection, schedule: Q01DX009 (ip), vehicle: Klucel (hydroxypropylcellulose) (HPC)
[3] = dose: 100.0 mg/kg/injection, schedule: Q04DX002 (ip), vehicle: Klucel (hydroxypropylcellulose) (HPC)
[4] = dose: 200.0 mg/kg/injection, schedule: Q04DX002 (ip), vehicle: Klucel (hydroxypropylcellulose) (HPC)
[5] = dose: 400.0 mg/kg/injection, schedule: Q04DX002 (ip), vehicle: Klucel (hydroxypropylcellulose) (HPC)
[6] = dose: 100.0 mg/kg/injection, schedule: Q01DX001 (ip), vehicle: saline with Tween-80
[7] = dose: 100.0 mg/kg/injection, schedule: Q04DX003 (ip), vehicle: Klucel (hydroxypropylcellulose) (HPC)
[8] = dose: 200.0 mg/kg/injection, schedule: Q04DX003 (ip), vehicle: Klucel (hydroxypropylcellulose) (HPC)
[9] = dose: 400.0 mg/kg/injection, schedule: Q01DX009 (ip), vehicle: Klucel (hydroxypropylcellulose) (HPC)
[10] = dose: 400.0 mg/kg/injection, schedule: Q04DX003 (ip), vehicle: Klucel (hydroxypropylcellulose) (HPC)
[11] = dose: 100.0 mg/kg/injection, schedule: Q04DX002 (ip), vehicle: saline with Tween-80
[12] = dose: 100.0 mg/kg/injection, schedule: Q04DX003 (ip), vehicle: saline with Tween-80
[13] = dose: 200.0 mg/kg/injection, schedule: Q04DX002 (ip), vehicle: saline with Tween-80
[14] = dose: 200.0 mg/kg/injection, schedule: Q04DX003 (ip), vehicle: saline with Tween-80
[15] = dose: 400.0 mg/kg/injection, schedule: Q01DX009 (ip), vehicle: saline with Tween-80
[16] = dose: 400.0 mg/kg/injection, schedule: Q04DX002 (ip), vehicle: saline with Tween-80
[17] = dose: 400.0 mg/kg/injection, schedule: Q04DX003 (ip), vehicle: saline with Tween-80

Measured: T/C

CN(C)c1ccc([PH+](c2ccc(N(C)C)cc2)c2ccc(N(C)C)cc2)cc1.CN(C)c1ccc([PH+](c2ccc(N(C)C)cc2)c2ccc(N(C)C)cc2)cc1.[Cl][Hg][Cl]
inactive: dose: 50.0 mg/kg/injection, schedule: Q01DX009 (ip), vehicle: Klucel (hydroxypropylcellulose) (HPC) 94 % of control | [1] 90 % of control | [2] 90 % of control

CC(=O)Nc1ccc(-n2cnc3c(Cl)ncnc32)cc1C
inactive: dose: 100.0 mg/kg/injection, schedule: Q01DX001 (ip), vehicle: carboxymethylcellulose (CMC) 87 % of control | dose: 200.0 mg/kg/injection, schedule: Q01DX001 (ip), vehicle: carboxymethylcellulose (CMC) 91 % of control | dose: 400.0 mg/kg/injection, schedule: Q01DX001 (ip), vehicle: carboxymethylcellulose (CMC) 91 % of control

[Cl][Ho]([Cl])[Cl]
inactive: dose: 100.0 mg/kg/injection, schedule: Q01DX005 (ip), vehicle: Klucel (hydroxypropylcellulose) (HPC) 94 % of control | [1] 98 % of control | [3] 88 % of control | dose: 200.0 mg/kg/injection, schedule: Q01DX005 (ip), vehicle: Klucel (hydroxypropylcellulose) (HPC) 98 % of control | [2] 95 % of control | [4] 98 % of control | dose: 400.0 mg/kg/injection, schedule: Q01DX005 (ip), vehicle: Klucel (hydroxypropylcellulose) (HPC) 88 % of control | [5] 109 % of control

Cc1cccnc1NC(=S)Nc1cccc(C(F)(F)F)c1
inactive: [3] 95 % of control | [4] 95 % of control | [5] 92 % of control

CCOC(=O)/C(C(N)=O)=C(/C)C=C(C)C
inactive: dose: 10.0 mg/kg/injection, schedule: Q01DX001 (ip), vehicle: acetone 101 % of control | dose: 20.0 mg/kg/injection, schedule: Q01DX001 (ip), vehicle: acetone 100 % of control

O/N=C1\CN2CCC1CC2
inactive: dose: 18.75 mg/kg/injection, schedule: Q04DX003 (ip), vehicle: saline 104 % of control | dose: 25.0 mg/kg/injection, schedule: Q01DX001 (ip), vehicle: saline with Tween-80 97 % of control | dose: 37.5 mg/kg/injection, schedule: Q04DX003 (ip), vehicle: saline 98 % of control | dose: 50.0 mg/kg/injection, schedule: Q01DX001 (ip), vehicle: saline with Tween-80 97 % of control | dose: 75.0 mg/kg/injection, schedule: Q04DX003 (ip), vehicle: saline 102 % of control | [6] 102 % of control

Cc1cc(C)c(N(C)C(=O)CCC(=O)O)c(Br)c1
inactive: [1] 89 % of control | [7] 101 % of control | [2] 101 % of control | [8] 100 % of control | [9] 101 % of control | [10] 94 % of control

COc1c2ccoc2nc2c(OC)c(OCC(O)C(C)(C)O)ccc12 (centres undefined)
inactive: dose: 50.0 mg/kg/injection, schedule: Q01DX Z (ip), vehicle: carboxymethylcellulose (CMC) 97 % of control | dose: 100.0 mg/kg/injection, schedule: Q01DX Z (ip), vehicle: carboxymethylcellulose (CMC) 100 % of control

COc1ccc(C)cc1NC(=S)NC(=O)c1ccc(Cl)cc1Cl
inactive: dose: 25.0 mg/kg/injection, schedule: Q01DX009 (ip), vehicle: saline with Tween-80 93 % of control and 105 % of control | dose: 50.0 mg/kg/injection, schedule: Q01DX009 (ip), vehicle: saline with Tween-80 93 % of control and 94 % of control | [11] 96 % of control | [12] 98 % of control | [13] 93 % of control and 107 % of control | [14] 95 % of control | [15] 96 % of control | [16] 93 % of control and 98 % of control

O=C(Nc1ccc(Cl)cc1)NC1CCCCC1
inactive: [7] 92 % of control | [8] 92 % of control | [10] 92 % of control

O=[N+]([O-])NC(=NCCNc1ccccc1)Nc1ccccc1
inactive: dose: 100.0 mg/kg/injection, schedule: Q04DX002 (ip), vehicle: gum acacia 98 % of control | dose: 200.0 mg/kg/injection, schedule: Q04DX002 (ip), vehicle: gum acacia 98 % of control | dose: 400.0 mg/kg/injection, schedule: Q04DX002 (ip), vehicle: gum acacia 88 % of control

Cc1ccc(/C=N/N)s1
inactive: dose: 100.0 mg/kg/injection, schedule: Q04DX003 (ip), vehicle: other 92 % of control | dose: 200.0 mg/kg/injection, schedule: Q04DX003 (ip), vehicle: other 99 % of control

CC(=O)OC1COC(n2cnc3c(=O)[nH]cnc32)C(OC(C)=O)C1OC(C)=O (centres undefined)
inactive: dose: 50.0 mg/kg/injection, schedule: Q01DX001 (ip), vehicle: saline 97 % of control | dose: 100.0 mg/kg/injection, schedule: Q01DX001 (ip), vehicle: saline 97 % of control and 115 % of control and 101 % of control | dose: 200.0 mg/kg/injection, schedule: Q01DX001 (ip), vehicle: saline 86 % of control and 109 % of control and 103 % of control | dose: 400.0 mg/kg/injection, schedule: Q01DX001 (ip), vehicle: saline 95 % of control

Cc1ccc(N=Nc2ccc(C)cc2NC(=O)Nc2cc(C)ccc2C)cc1
inactive: [6] 102 % of control | dose: 100.0 mg/kg/injection, schedule: Q01DX009 (ip), vehicle: saline with Tween-80 98 % of control | [11] 87 % of control and 89 % of control | dose: 200.0 mg/kg/injection, schedule: Q01DX001 (ip), vehicle: saline with Tween-80 109 % of control | dose: 200.0 mg/kg/injection, schedule: Q01DX009 (ip), vehicle: saline with Tween-80 106 % of control | [13] 91 % of control | dose: 400.0 mg/kg/injection, schedule: Q01DX001 (ip), vehicle: saline with Tween-80 90 % of control | [15] 102 % of control | [16] 95 % of control and 89 % of control

COc1cc(C(=O)NOCc2cccc(C(F)(F)F)c2)cc(OC)c1OC
inactive: [12] 98 % of control | [14] 98 % of control | [17] 101 % of control

CC(=O)OC(OC(C)=O)c1ccc([N+](=O)[O-])o1
inactive: dose: 12.5 mg/kg/injection, schedule: Q04DX003 (ip), vehicle: Klucel (hydroxypropylcellulose) (HPC) 101 % of control | dose: 25.0 mg/kg/injection, schedule: Q04DX003 (ip), vehicle: Klucel (hydroxypropylcellulose) (HPC) 87 % of control | dose: 50.0 mg/kg/injection, schedule: Q04DX003 (ip), vehicle: Klucel (hydroxypropylcellulose) (HPC) 98 % of control | [7] 96 % of control

CNC(=O)Nc1cccc2c(=O)[nH][nH]c(=O)c12
inactive: [1] 114 % of control | [7] 97 % of control | [2] 100 % of control | [8] 108 % of control | [9] 86 % of control | [10] 91 % of control

CCCCC(CC)COC(OCC(CC)CCCC)C(OCC(CC)CCCC)OCC(CC)CCCC (centres undefined)
inactive: dose: 100.0 mg/kg/injection, schedule: Q01DX009 (ip), vehicle: saline 101 % of control | [12] 98 % of control | dose: 200.0 mg/kg/injection, schedule: Q01DX009 (ip), vehicle: saline 101 % of control | [14] 94 % of control | dose: 400.0 mg/kg/injection, schedule: Q01DX009 (ip), vehicle: saline 113 % of control | [17] 91 % of control

CCCCCCCC[As](=O)(O)O
inactive: dose: 1.5 mg/kg/injection, schedule: Q01DX001 (ip), vehicle: carboxymethylcellulose (CMC) 104 % of control | dose: 3.0 mg/kg/injection, schedule: Q01DX001 (ip), vehicle: carboxymethylcellulose (CMC) 98 % of control | dose: 6.0 mg/kg/injection, schedule: Q01DX001 (ip), vehicle: carboxymethylcellulose (CMC) 102 % of control

From PubChem BioAssay AID248 (DTP/NCI, 2004)
